Test results published in US20260297081A1, “COMPOUNDS AND METHODS OF TREATING CANCERS” (Cullgen Inc., priority 2023, published 2026).

What follows are compounds tested on MCF7 cells (assay: Anti-proliferation (viability) of MCF7 cells (Table 7, FIG. 2B)). Conditions: Homo sapiens, MCF7, MCF7 cells, 3-6 days, 10-point serial dilution; read-out: GI IC50 in MCF-7.
Type: cell-based

Compound	IC50 [µM]
CC(=O)c1c(C)c2cnc(Nc3ccc(N4CCN(C(C)C(=O)NC5CC(Nc6nc(NC(C)C)ccc6C(=O)Nc6cn(C)c(C7CC7)n6)C5)CC4)cn3)nc2n(C2CCCC2)c1=O (centres unmarked) [CPD-327, 2-((3-(2-(4-(6-((6-acetyl-8-cyclopentyl-5-methyl-7-oxo-7,8-dihydropyrido[2,3-d]pyrimidin-2-yl)amino)pyridin-3-yl)piperazin-1-yl)propanamido)cyclobutyl)amino)-N-(2-cyclopropyl-1-methyl-1H-imidazol-4-yl)-6-(isopropylamino)nicotinamide]	> 0.1
CNc1ccc(C(=O)Nc2ccc(N(C)C)nn2)c(NC23CC(NC(=O)CN4CCN(c5ccc(Nc6ncc7c(C)c(C(C)=O)c(=O)n(C8CCCC8)c7n6)nc5)CC4)(C2)C3)n1 [CPD-346, 2-((3-(2-(4-(6-((6-acetyl-8-cyclopentyl-5-methyl-7-oxo-7,8-dihydropyrido[2,3-d]pyrimidin-2-yl)amino)pyridin-3-yl)piperazin-1-yl)acetamido)bicyclo[1.1.1]pentan-1-yl)amino)-N-(6-(dimethylamino)pyridazin-3-yl)-6-(methylamino)nicotinamide]	> 0.1
CC(=O)c1c(C)c2cnc(Nc3ccc(N4CCC(N5CC(C(=O)N6CCC(Nc7nc(NC(C)C)ccc7C(=O)Nc7ccc(N(C)C)nn7)CC6)C5)CC4)cn3)nc2n(C2CCCC2)c1=O [CPD-390, 2-((1-(1-(1-(6-((6-acetyl-8-cyclopentyl-5-methyl-7-oxo-7,8-dihydropyrido[2,3-d]pyrimidin-2-yl)amino)pyridin-3-yl)piperidin-4-yl)azetidine-3-carbonyl)piperidin-4-yl)amino)-N-(6-(dimethylamino)pyridazin-3-yl)-6-(isopropylamino)nicotinamide]	> 0.1
CC(=O)c1c(C)c2cnc(Nc3ccc(N4CCN(C5(C(=O)NC6CC7(C6)CC(Nc6nc(NC(C)C)ccc6C(=O)Nc6cc(C)on6)C7)CC5)CC4)cn3)nc2n(C2CCCC2)c1=O (centres unmarked) [CPD-371, 2-((6-(1-(4-(6-((6-acetyl-8-cyclopentyl-5-methyl-7-oxo-7,8-dihydropyrido[2,3-d]pyrimidin-2-yl)amino)pyridin-3-yl)piperazin-1-yl)cyclopropane-1-carboxamido)spiro[3.3]heptan-2-yl)amino)-6-(isopropylamino)-N-(5-methylisoxazol-3-yl)nicotinamide]	> 0.1
CNc1ccc(C(=O)Nc2ccc(N(C)C)nn2)c(NC2CC3(C2)CC(C(=O)N2CC(N4CCN(c5ccc(Nc6ncc7c(C)c(C(C)=O)c(=O)n(C8CCCC8)c7n6)nc5)CC4)C2)C3)n1 (centres unmarked) [CPD-362, 2-((6-(3-(4-(6-((6-acetyl-8-cyclopentyl-5-methyl-7-oxo-7,8-dihydropyrido[2,3-d]pyrimidin-2-yl)amino)pyridin-3-yl)piperazin-1-yl)azetidine-1-carbonyl)spiro[3.3]heptan-2-yl)amino)-N-(6-(dimethylamino)pyridazin-3-yl)-6-(methylamino)nicotinamide]	> 0.1
[2H]C([2H])([2H])Nc1ccc(C(=O)Nc2cn(C)c(C3CC3)n2)c(NC2CC3(CC(NC(=O)C(C)N4CCN(c5ccc(Nc6ncc7c(C)c(C(C)=O)c(=O)n(C8CCCC8)c7n6)nc5)CC4)C3)C2)n1 (centres unmarked) [CPD-405, 2-((6-(2-(4-(6-((6-acetyl-8-cyclopentyl-5-methyl-7-oxo-7,8-dihydropyrido[2,3-d]pyrimidin-2-yl)amino)pyridin-3-yl)piperazin-1-yl)propanamido)spiro[3.3]heptan-2-yl)amino)-N-(2-cyclopropyl-1-methyl-1H-imidazol-4-yl)-6-((methyl-d3)amino)nicotinamide]	> 0.1
CC(=O)c1c(C)c2cnc(Nc3ccc(N4CCN(CCC(=O)N5CCC(Nc6nc(NC(C)C)ccc6C(=O)Nc6cn(C)c(C7CC7)n6)CC5)CC4)cn3)nc2n(C2CCCC2)c1=O [CPD-313, 2-((1-(3-(4-(6-((6-acetyl-8-cyclopentyl-5-methyl-7-oxo-7,8-dihydropyrido[2,3-d]pyrimidin-2-yl)amino)pyridin-3-yl)piperazin-1-yl)propanoyl)piperidin-4-yl)amino)-N-(2-cyclopropyl-1-methyl-1H-imidazol-4-yl)-6-(isopropylamino)nicotinamide]	> 0.1
CCCNc1ccc(C(=O)Nc2cn(C)c(C3CC3)n2)c(NC2CC3(CC(NC(=O)CN4CCN(c5ccc(Nc6ncc7c(C)c(C(C)=O)c(=O)n(C8CCCC8)c7n6)nc5)CC4)C3)C2)n1 (centres unmarked) [CPD-298, 2-((6-(2-(4-(6-((6-acetyl-8-cyclopentyl-5-methyl-7-oxo-7,8-dihydropyrido[2,3-d]pyrimidin-2-yl)amino)pyridin-3-yl)piperazin-1-yl)acetamido)spiro[3.3]heptan-2-yl)amino)-N-(2-cyclopropyl-1-methyl-1H-imidazol-4-yl)-6-(propylamino)nicotinamide]	> 0.1
CNc1ccc(C(=O)Nc2ccc(N(C)C)nn2)c(NC2CC(C(=O)N3CCC4(CCN(c5ccc(Nc6ncc7c(C)c(C(C)=O)c(=O)n(C8CCCC8)c7n6)nc5)CC4)C3)C2)n1 (centres unmarked) [CPD-381, 2-((3-(8-(6-((6-acetyl-8-cyclopentyl-5-methyl-7-oxo-7,8-dihydropyrido[2,3-d]pyrimidin-2-yl)amino)pyridin-3-yl)-2,8-diazaspiro[4.5]decane-2-carbonyl)cyclobutyl)amino)-N-(6-(dimethylamino)pyridazin-3-yl)-6-(methylamino)nicotinamide]	> 0.1
[2H]C([2H])([2H])Nc1ccc(C(=O)Nc2cn(C)c(C3CC3)n2)c(NC2CC(NC(=O)CN3CCN(c4ccc(Nc5ncc6c(C)c(C(C)=O)c(=O)n(C7CCCC7)c6n5)nc4)CC3)C2)n1 (centres unmarked) [CPD-307, 2-((3-(2-(4-(6-((6-acetyl-8-cyclopentyl-5-methyl-7-oxo-7,8-dihydropyrido[2,3-d]pyrimidin-2-yl)amino)pyridin-3-yl)piperazin-1-yl)acetamido)cyclobutyl)amino)-N-(2-cyclopropyl-1-methyl-1H-imidazol-4-yl)-6-((methyl-d3)amino)nicotinamide]	> 0.1
CNc1ccc(C(=O)Nc2ccc(N(C)C)nn2)c(NC2CCC(C(=O)N3CCC4(CCN(c5ccc(Nc6ncc7c(C)c(C(C)=O)c(=O)n(C8CCCC8)c7n6)nc5)CC4)C3)CC2)n1 (centres unmarked) [CPD-385, 2-((4-(8-(6-((6-acetyl-8-cyclopentyl-5-methyl-7-oxo-7,8-dihydropyrido[2,3-d]pyrimidin-2-yl)amino)pyridin-3-yl)-2,8-diazaspiro[4.5]decane-2-carbonyl)cyclohexyl)amino)-N-(6-(dimethylamino)pyridazin-3-yl)-6-(methylamino)nicotinamide]	0.05 to 0.1
CNc1ccc(C(=O)Nc2ccc(N(C)C)nn2)c(NCC2(F)CN(C(=O)CN3CCN(c4ccc(Nc5ncc6c(C)c(C(C)=O)c(=O)n(C7CCCC7)c6n5)nc4)CC3)C2)n1 [CPD-344, 2-(((1-(2-(4-(6-((6-acetyl-8-cyclopentyl-5-methyl-7-oxo-7,8-dihydropyrido[2,3-d]pyrimidin-2-yl)amino)pyridin-3-yl)piperazin-1-yl)acetyl)-3-fluoroazetidin-3-yl)methyl)amino)-N-(6-(dimethylamino)pyridazin-3-yl)-6-(methylamino)nicotinamide]	> 0.1
CNc1ccc(C(=O)Nc2ccc(N(C)C)nn2)c(NC2CC3(C2)CN(C(=O)CN2CCN(Cc4ccc(Nc5ncc6c(C)c(C(C)=O)c(=O)n(C7CCCC7)c6n5)nc4)CC2)C3)n1 [CPD-268, 2-((2-(2-(4-((6-((6-acetyl-8-cyclopentyl-5-methyl-7-oxo-7,8-dihydropyrido[2,3-d]pyrimidin-2-yl)amino)pyridin-3-yl)methyl)piperazin-1-yl)acetyl)-2-azaspiro[3.3]heptan-6-yl)amino)-N-(6-(dimethylamino)pyridazin-3-yl)-6-(methylamino)nicotinamide]	< 0.05
CC(=O)c1c(C)c2cnc(Nc3ccc(N4CCN(C(C)C(=O)NC5CC6(C5)CC(Nc5nc(NC(C)C)ccc5C(=O)Nc5ccc(N(C)C)nn5)C6)CC4)cn3)nc2n(C2CCCC2)c1=O (centres unmarked) [CPD-406, 2-((6-(2-(4-(6-((6-acetyl-8-cyclopentyl-5-methyl-7-oxo-7,8-dihydropyrido[2,3-d]pyrimidin-2-yl)amino)pyridin-3-yl)piperazin-1-yl)propanamido)spiro[3.3]heptan-2-yl)amino)-N-(6-(dimethylamino)pyridazin-3-yl)-6-(isopropylamino)nicotinamide]	< 0.05
CC(=O)c1c(C)c2cnc(N(C)c3ccc(N4CCN(CCC(=O)N5CC6(CC(Nc7nc(NC(C)C)ccc7C(=O)Nc7cc(C)n(C)n7)C6)C5)CC4)cn3)nc2n(C2CCCC2)c1=O [CPD-404, 2-((2-(3-(4-(6-((6-acetyl-8-cyclopentyl-5-methyl-7-oxo-7,8-dihydropyrido[2,3-d]pyrimidin-2-yl)(methyl)amino)pyridin-3-yl)piperazin-1-yl)propanoyl)-2-azaspiro[3.3]heptan-6-yl)amino)-N-(1,5-dimethyl-1H-pyrazol-3-yl)-6-(isopropylamino)nicotinamide]	> 0.1
CC(=O)c1c(C)c2cnc(Nc3ccc(CN4CCN(CC(=O)N5CCC(Nc6nc(NC(C)C)ccc6C(=O)Nc6cc(C)n(C)n6)CC5)CC4)cn3)nc2n(C2CCCC2)c1=O [CPD-421, 2-((1-(2-(4-((6-((6-acetyl-8-cyclopentyl-5-methyl-7-oxo-7,8-dihydropyrido[2,3-d]pyrimidin-2-yl)amino)pyridin-3-yl)methyl)piperazin-1-yl)acetyl)piperidin-4-yl)amino)-N-(1,5-dimethyl-1H-pyrazol-3-yl)-6-(isopropylamino)nicotinamide]	> 0.1
CC(=O)c1c(C)c2cnc(Nc3ccc(CN4CCN(CC(=O)N5CCC(Nc6nc(NC(C)C)ccc6C(=O)Nc6cn(C)c(C7CC7)n6)CC5)CC4)cn3)nc2n(C2CCCC2)c1=O [CPD-420, 2-((1-(2-(4-((6-((6-acetyl-8-cyclopentyl-5-methyl-7-oxo-7,8-dihydropyrido[2,3-d]pyrimidin-2-yl)amino)pyridin-3-yl)methyl)piperazin-1-yl)acetyl)piperidin-4-yl)amino)-N-(2-cyclopropyl-1-methyl-1H-imidazol-4-yl)-6-(isopropylamino)nicotinamide]	> 0.1
